Here are results for 21 compounds from patent US9790233B2, “Compositions and methods of modulating 15-PGDH activity” (CASE WESTERN RESERVE UNIVERSITY, priority 2012, dated 2017).

Type in all cases: cell-based
Experiment [1] deals with 15-PGDH luciferase fusion construct in V9m reporter cell line. As to the kind of experiment: 15-PGDH-luciferase fusion gene reporter induction, V9m cells.
Experiment [2] relates to 15-PGDH luciferase fusion construct in LS174T reporter cell line. As to the kind of experiment: 15-PGDH-luciferase fusion gene reporter induction, LS174T cells. To be noted: Homo sapiens.
The subject of experiment [3] is 15-PGDH luciferase fusion construct in Vaco503 reporter cell line. As to the kind of experiment: 15-PGDH-luciferase fusion gene reporter induction, V503 cells.
[4] abbreviates: read-out: V9M-SC3 Reporter activity ([…]) (%), V9m reporter cells, […] compound, % induction of luciferase activity over basal level, read-out: V9M-SC3 Reporter activity (2.5 μM) (%).
[5] abbreviates: read-out: V9M-SC3 Reporter activity ([…]), %, V9m reporter cells, […] compound, % induction of luciferase activity over basal level, read-out: V9M-SC3 Reporter activity (7.5 μM), %.
Setting [6] is: read-out: Ls174T-SC1 reporter activity, % ([…]), LS174T reporter cells, […] compound, % induction of luciferase activity over basal level, read-out: Ls174T-SC1 reporter activity, % (2.5 μM).
The mark [7] stands for this setting: read-out: Ls174T-SC1 reporter activity, % ([…]), LS174T reporter cells, […] compound, % induction of luciferase activity over basal level, read-out: Ls174T-SC1 reporter activity, % (7.5 μM).
Where [8] appears, read: read-out: V503-3H9-7 reporter activity, % ([…]), V503 reporter cells, […] compound, % induction of luciferase activity over basal level, read-out: V503-3H9-7 reporter activity, % (2.5 μM).
[9] abbreviates: read-out: V503-3H9-7 reporter activity, % ([…]), V503 reporter cells, […] compound, % induction of luciferase activity over basal level, read-out: V503-3H9-7 reporter activity, % (7.5 μM).
Where [10] appears, read: read-out: V9M reporter activity ([…]), […], % induction of luciferase activity over basal level, Table 17, read-out: V9M reporter activity (2.5 μM).
The mark [11] stands for this setting: read-out: V9M reporter activity ([…]), […], % induction over basal level, Table 17, read-out: V9M reporter activity (7.5 μM).
Where [12] appears, read: read-out: LS174T reporter activity ([…]), […], % induction over basal level, Table 17, read-out: LS174T reporter activity (2.5 μM).
[13] abbreviates: read-out: lS174T reporter activity ([…]), […], % induction over basal level, Table 17, read-out: lS174T reporter activity (7.5 μM).
The mark [14] stands for this setting: read-out: V503 reporter activity ([…]), […], % induction over basal level, Table 17, read-out: V503 reporter activity (2.5 μM).
The mark [15] stands for this setting: read-out: V503 reporter activity ([…]), […], % induction over basal level, Table 17, read-out: V503 reporter activity (7.5 μM).
[16] abbreviates: read-out: V9M-SC3 Reporter activity ([…]) (%), […], Table 18, read-out: V9M-SC3 Reporter activity (2.5 μM) (%).
Setting [17] is: read-out: Ls174T-SC1 reporter activity, % ([…]), […], Table 18, read-out: Ls174T-SC1 reporter activity, % (2.5 μM).
The mark [18] stands for this setting: read-out: Ls174T-SC1 reporter activity, % ([…]), […], Table 18, read-out: Ls174T-SC1 reporter activity, % (7.5 μM).
[19] abbreviates: read-out: V503-3H9-7 reporter activity, % ([…]), […], Table 18, read-out: V503-3H9-7 reporter activity, % (2.5 μM).
Where [20] appears, read: read-out: V503-3H9-7 reporter activity, % ([…]), […], Table 18, read-out: V503-3H9-7 reporter activity, % (7.5 μM).
Where [21] appears, read: read-out: V9M reporter activity ([…]), […], % increased luciferase activity over basal level, 100 = doubling, read-out: V9M reporter activity (2.5 uM).
The mark [22] stands for this setting: read-out: V9M reporter activity ([…]), […], % increased luciferase activity over basal level, 100 = doubling, read-out: V9M reporter activity (7.5 uM).
The mark [23] stands for this setting: read-out: LS174T reporter activity ([…]), […], % increased luciferase activity over basal level, read-out: LS174T reporter activity (2.5 uM).
Where [24] appears, read: read-out: LS174T reporter activity ([…]), […], % increased luciferase activity over basal level, read-out: LS174T reporter activity (7.5 uM).
[25] abbreviates: read-out: V503 reporter activity ([…]), […], % increased luciferase activity over basal level, read-out: V503 reporter activity (2.5 uM).
Setting [26] is: read-out: V503 reporter activity ([…]), […], % increased luciferase activity over basal level, read-out: V503 reporter activity (7.5 uM).
[27] abbreviates: V9m reporter cells, […] compound, % induction of luciferase activity over basal level.

Read-outs that look alike come from different tables or passages of the source.

In the case of `COc1ccc(OC)c(N(CC(=O)N2CCc3ccccc32)S(=O)(=O)c2ccccc2)c1` [SW208003], the activation at […] in experiment [1] (setting [4]) is 13.3%; in experiment [1] (setting [5]) it was -11.5%; in experiment [2] (setting [6]) it was 37%; in experiment [2] (setting [7]) it was 45.6%; in experiment [3] (setting [8]) it was 117%; in experiment [3] (setting [9]), 75.9%.
Turning to `CCc1ccccc1NC(=O)CN(c1ccc(OC)cc1OC)S(=O)(=O)c1ccccc1` [compound 407572], the activation at […] in experiment [1] (setting [10]) is -8.45%; in experiment [1] (setting [11]), -6.12%; in experiment [2] (setting [12]), 2.22%; in experiment [2] (setting [13]), 6.94%; in experiment [3] (setting [14]), 17.2%; in experiment [3] (setting [15]), 35.9%.
As for `COc1ccc(OC)c(N(CC(=O)Nc2ccc(I)cc2)S(=O)(=O)c2ccc(C)cc2)c1` [compound 771146], the activation at […] in experiment [1] (setting [10]) is -38.1%; in experiment [1] (setting [11]) it was -78.3%; in experiment [2] (setting [12]), -31.6%; in experiment [2] (setting [13]), -68.8%; in experiment [3] (setting [14]) it was -49.7%; in experiment [3] (setting [15]) it was -86.6%.
For the compound `COc1ccc(N(CC(=O)Nc2cccnc2)S(=O)(=O)c2ccccc2)c(OC)c1` [310875−38−8], the activation at […] in experiment [1] (setting [16]) is -8.72%; in experiment [2] (setting [17]) it was 27.7%; in experiment [2] (setting [18]), 102%; in experiment [3] (setting [19]) it was 64.1%; in experiment [3] (setting [20]), 148%.
As for `COc1ccc(N(CC(=O)Nc2ccc(CC#N)cc2)S(=O)(=O)c2ccccc2)cc1Cl` [compound 919576], the activation at […] in experiment [1] (setting [10]) stood at 49.9%; in experiment [1] (setting [11]), 63%; in experiment [2] (setting [12]), 17.5%; in experiment [2] (setting [13]) it was 30.7%; in experiment [3] (setting [14]), 49.2%; in experiment [3] (setting [15]), 73.7%.
Take `COc1ccc(S(=O)(=O)N(CC(=O)Nc2ccccc2)c2ccccc2)cc1` [compound 474738]: the activation at […] in experiment [1] (setting [10]) is -7.27%; in experiment [1] (setting [11]), 3.48%; in experiment [2] (setting [12]), -0.36%; in experiment [2] (setting [13]), 3.5%; in experiment [3] (setting [14]), 17%; in experiment [3] (setting [15]), 24.6%.
`COc1ccc(N(CC(=O)Nc2cccc(Cl)c2)S(=O)(=O)c2ccc(OC)c(OC)c2)cc1` [compound 408961]: the activation at […] in experiment [1] (setting [10]) was -12.4%; in experiment [1] (setting [11]), 0.56%; in experiment [2] (setting [12]), 2.46%; in experiment [2] (setting [13]) it was -4.51%; in experiment [3] (setting [14]), 11.7%; in experiment [3] (setting [15]) it was 17.6%.
On to `COc1ccc(OC)c(N(CC(=O)N2CCCC2)S(=O)(=O)c2ccccc2)c1` [SW208001], for which the activation at […] is 19.6% in experiment [1] (setting [4]); 23.3% in experiment [1] (setting [5]); -0.61% in experiment [2] (setting [6]); 1.87% in experiment [2] (setting [7]); -4.07% in experiment [3] (setting [8]); 6.68% in experiment [3] (setting [9]).
With `CCCCCC[S+]([O-])c1sc2nc(-c3cccs3)cc(-c3ccccc3)c2c1N` (stereo not drawn) [SW208081, 2-(hexylsulfinyl)-4-phenyl-6-(thiophen-2-yl)thieno[2,3-b]pyridin-3-amine], the activation at […] in experiment [1] (setting [21]) was found to be 37.8%; in experiment [1] (setting [22]), 63.6%; in experiment [2] (setting [23]), 64.5%; in experiment [2] (setting [24]) it was 95.1%; in experiment [3] (setting [25]), 90.5%; in experiment [3] (setting [26]), 105%.
As to `CCCCC(=O)c1sc2nc(-c3cccs3)cc(-c3ccccc3)c2c1N` [SW206976, 1-(3-amino-4-phenyl-6-(thiophen-2-yl)thieno[2,3-b]pyridin-2-yl)pentan-1-one], the activation at […] in experiment [1] (setting [21]) amounted to 11.8%; in experiment [1] (setting [22]), 17.5%; in experiment [2] (setting [23]), 42.4%; in experiment [2] (setting [24]), 20.6%; in experiment [3] (setting [25]), 16.8%; in experiment [3] (setting [26]), 49.5%.
On to `COc1ccc(OC)c(N(CC(=O)Nc2ccccc2Br)S(=O)(=O)c2ccc(OC)c(OC)c2)c1` [compound 924740], for which the activation at […] in experiment [1] (setting [10]) is -0.54%; in experiment [1] (setting [11]), 6.33%; in experiment [2] (setting [12]), 7.69%; in experiment [2] (setting [13]), 16.7%; in experiment [3] (setting [14]), 20.2%; in experiment [3] (setting [15]), 52.2%.
Consider `COc1ccc(OC)c(N(CC(=O)Nc2cccc(Cl)c2)S(=O)(=O)c2ccc(OC)c(OC)c2)c1` [compound 785254], for which the activation at […] in experiment [1] (setting [10]) is -16.1%; in experiment [1] (setting [11]), -8.48%; in experiment [2] (setting [12]) it was 2.93%; in experiment [2] (setting [13]), 4.29%; in experiment [3] (setting [14]), 16.1%; in experiment [3] (setting [15]), 28.3%.
On to `CCc1cccc(CC)c1NC(=O)CN(c1cc(OC)ccc1OC)S(=O)(=O)c1ccc(OC)c(OC)c1` [compound 1003429], for which the activation at […] in experiment [1] (setting [10]) was 12.6%; in experiment [1] (setting [11]), 4.17%; in experiment [2] (setting [12]) it was 8.82%; in experiment [2] (setting [13]), -6.88%; in experiment [3] (setting [14]) it was -7.46%; in experiment [3] (setting [15]), -19.2%.
For the compound `COc1ccc(OC)c(NC(=O)CN(c2ccc([N+](=O)[O-])cc2)S(=O)(=O)c2ccccc2)c1` [compound 414195], the activation at […] was -13.9% in experiment [1] (setting [10]); -16.8% in experiment [1] (setting [11]); -1.15% in experiment [2] (setting [12]); 2.34% in experiment [2] (setting [13]); 13.1% in experiment [3] (setting [14]); 19.5% in experiment [3] (setting [15]).
For the compound `O=C(CN(c1ccc2c(c1)OCCO2)S(=O)(=O)c1ccccc1)Nc1cccnc1` [701217-00-7], the activation at […] in experiment [1] (setting [16]) was -2.05%; in experiment [2] (setting [17]) it was -6.89%; in experiment [2] (setting [18]) it was -0.54%; in experiment [3] (setting [19]), 20.1%; in experiment [3] (setting [20]), 33.4%.
In the case of `COc1ccc(OC)c(N(CC(=O)Nc2cccnc2)S(=O)(=O)c2ccccc2C#N)c1` [SW202945], the activation at […] in experiment [1] (setting [4]) is 28.5%; in experiment [1] (setting [5]), 90%; in experiment [2] (setting [6]), 45.7%; in experiment [2] (setting [7]), 135%; in experiment [3] (setting [8]), 34%; in experiment [3] (setting [9]) it was 127%.
As for `COc1ccc(OC)c(N(CC(=O)Nc2ccc(Br)cc2F)S(=O)(=O)c2ccc(C)cc2)c1` [compound 1004292], the activation at […] in experiment [1] (setting [10]) is 0.88%; in experiment [1] (setting [11]), -0.21%; in experiment [2] (setting [12]), 20.3%; in experiment [2] (setting [13]) it was 0.14%; in experiment [3] (setting [14]), 23.5%; in experiment [3] (setting [15]), 21.2%.
Take `CCCC[S+]([O-])c1ncccc1N` (stereo not drawn) [SW208070, 2-(butylsulfinyl)pyridin-3-amine]: the activation at […] is 22.6% in experiment [1] (setting [21]); 12.1% in experiment [1] (setting [22]); 19.7% in experiment [2] (setting [23]); 15.4% in experiment [2] (setting [24]); 19.7% in experiment [3] (setting [25]); 15.4% in experiment [3] (setting [26]).
With `O=C(CN(c1ccccc1)S(=O)(=O)c1ccccc1)Nc1cccnc1` [331727−07−2], the activation at […] was 28.2% in experiment [1] (setting [16]); -7.53% in experiment [2] (setting [17]); 9.47% in experiment [2] (setting [18]); 8.13% in experiment [3] (setting [19]); 1.14% in experiment [3] (setting [20]).
As to `COc1ccc(OC)c(N(CC(=O)Nc2cncc(Cl)c2)S(=O)(=O)c2ccccc2)c1` [SW202990], in experiment [1] (setting [27]), the “V9M-SC3 Reporter activity ([…]) (%)” value is recorded as 3.57% and the “V9M-SC3 Reporter activity ([…]), %” value is 23.49%.
Regarding `Nc1c(C(=O)Cc2ccccc2)sc2nc(-c3cccs3)cc(-c3ccccc3)c12` [SW033292], in experiment [1] (setting [21]), the activation at […] came to 1.51%.
